Common to all, as to format: cell-based, human
Assay [1] deals with homologous recombination activity. Nature of the assay: Assay for site-specific homologous recombination activity (ASHRA). Conditions: HeLa cells, siRNA of control, BRCA1 or RAD51; 48 hours of culture with drug. The method, then: HeLa cells were seeded on a 3.5 cm dish, and the next day, siRNA was introduced. After 24 hours of culture from the introduction of siRNA, LentiCRISPRv2-ACTB-C1 and pBS-ACTB-200 GFPfr1 (vector for ASHRA measurement) were introduced, and Nicaraven was added at the same time. After further culturing for 48 hours, genomic DNA was purified using Blood Genomic DNA Extraction Mini Kit (Favorgen, Ping-tung, Taiwan). Genome quantitative PCR was performed using Go Taq qPCR master mix (Promega, Madison, WI, USA), measurement was done using CFX96 Touch Real-time PCR detection system (BioRad, Hercules, CA, USA), and knock-in efficiency was calculated by ΔΔCt method. Sequences of a primer for detecting a knock-in allele and a primer for detecting a reference allele are shown below. • For knock-in allyl detection • Forward […] • Reverse […] • For reference allyl detection • Forward […] • Reverse […] • Reference paper: NPL 2.
After 24 hours, a vector for measurement of homologous recombination activity was introduced, and Nicaraven was added. After 48 hours of culture, DNA was collected and homologous recombination activity was measured.
The homologous recombination ability was analyzed by Assay for site-specific homologous recombination activity (ASHRA) (Yoshino et al. Scientific Reports 2019, method shown in Fig. 5).

For a further assay, the system named is HeLa cells. Briefly: Drug sensitivity test: cell viability (Presto Blue) of HeLa cells with siRNA-reduced homologous recombination activity. The note with it: 96 hours of culture. The method, then:
(§1) HeLa cell suspension adjusted to 5000 cells/ml was seeded in a 96 well plate at 100 ul/well, and the next day, siRNA was introduced, followed by addition of Olaparib or Nicaraven. One hundred twenty hours after gene introduction and Olaparib addition, HeLa cells were replaced in a medium to which Presto Blue assay (Thermo-Fisher Scientific, Waltham, MA, USA) had been added so as to have a final concentration of 5%, followed by reaction in the presence of 5% CO2 at 37°C for 1 hour, and then fluorescence was measured under conditions of an excitation wavelength of 520 nm and a fluorescence wavelength of 580 to 640 nm using GloMax (registered trademark) Explorer Multimode Microplate Reader (Promega, Madison, WI, USA).
After 96 hours of culture, cell viability was measured.
Figs. 1B and 1C show the measurement results of cell viability.

Another assay relates to KYSE30 cells. Briefly: Cell viability of KYSE30 cells with siRNA-reduced homologous recombination activity. The note with it: KYSE30 cells with expression of RAD51 suppressed by siRNA, compared with control. The method, then:
(§2) KYSE270 cells and KYSE30 cells (human esophageal squamous cell carcinoma cell line) were purchased from JCRB Cell Bank, National Institutes of Biomedical Innovation, Health and Nutrition (Osaka, Japan). KYSE270 cells and KYSE30 cells were cultured in a medium in which RPMI1640 and Ham's F12 medium (both of which were manufactured by FUJIFILM Wako Pure Chemical Corporation, Osaka, Japan) were mixed in equal amounts and 5% FBS was added at 37°C in the presence of 5% CO2.
as §1
Fig. 7. […]

The subject of assay [2] is γ-H2AX. Briefly: γ-H2AX intranuclear foci immunostaining after ionizing radiation (DNA repair process). Conditions: drug 30 minutes before 1.5 Gy of X-ray, 24 hours after irradiation. The method, then:
After cell seeding, Nicaraven was added. After 30 minutes, the cells were irradiated with 1.5 Gy of X-ray, and after 2 hours and 24 hours, the cells were fixed and immunostained with an anti-γ-H2AX antibody.
Cells in which five or more γ-H2AX intranuclear foci were observed were counted, and the ratio was calculated and represented in a graph. Respective cells in which less than 5, 5 or more and less than 10, 10 or more and less than 20, and 20 or more γ-H2AX intranuclear foci were observed were counted, and the ratio was calculated and represented in a graph (Fig. 3D).
After IR, more γ-H2AX intranuclear foci are observed in multiple cells in 2 hours. After 24 hours, DNA double strand break is repaired, reducing the number of cells having intranuclear foci and the number of intranuclear foci per cell. Suppression of expression of RAD51 suppressed DNA damage repair. […] It is considered that more DNA damage was formed due to PARP inhibitory action. The measurement of nuclear focus of γ-H2AX 24 hours after X-ray irradiation in this example is a result in a cell having a fast cell cycle.

Assay [3] relates to γ-H2AX. Briefly: Western blot of γ-H2AX after ionizing radiation. Conditions: HeLa cells, drug 30 minutes before 10 Gy of X-ray, collected two hours later. How it is done:
The culture medium for the cells seeded on a 3.5 cm dish was removed, followed by washing with 1x PBS and then direct dissolution in a 1x Sodium dodecyl sulfate (SDS) sample buffer (2% SDS, 1% 2-Mercaptoethanol [2-ME], 50 mM Tris-HCL [pH 6.8], 12% glycerol, 1% Bromophenol blue [BPB]). Thereafter, the solution was subjected to ultrasonic treatment with Vibra cell (Sonics & Materials Inc., CT, USA) and heated at 95°C for 5 minutes to prepare a whole cell extract. For Western blotting, electrophoresis was performed through a 6%, 10% SDS polyacrylamide gel, and […] was done to a PVDF membrane (Millipore Corporation Darmstadt, Germany) for 1.5 h, followed by blocking with 5% skim milk-PBS for 3 to 16 h. After blocking, a primary antibody diluted with a 0.5% BSA/TBS-T or Can get signal solution (TOYOBO, Osaka, Japan) was allowed to react overnight at 4°C. After washing 3 times with PBS-T for 10 minutes, a secondary antibody diluted with 0.5% BSA/TBS-T was allowed to react at room temperature for 1 to 3 hours. […]
The day after HeLa cells were seeded, Nicaraven was added, and 30 minutes later, the cells were irradiated with 10 Gy of X-ray. […] Cell extracts were adjusted and analyzed with Western Blot. […]
(In general: A western blot detects proteins with antibodies after separation by electrophoresis.)

A further assay deals with KYSE270 cells. Nature of the assay: Cell viability of KYSE270 cells with siRNA-reduced homologous recombination activity. Conditions: KYSE270 cells with expression of RAD51 suppressed by siRNA, compared with control; 5 days of culture. The method, then: as §2, §1
Fig. 6A. […] After 5 days of culture, cell viability was measured. […]

[4] abbreviates: HeLa cells with expression of BRCA1 and RAD51 suppressed by siRNA, compared with control siRNA.

Each structure is given as a SMILES string.

The text below walks through data of patent publication EP4563148A1, “MEDICINE FOR TREATING CANCER” (Science Technology Interact Co., Ltd., priority 2022, dated 2024).

For `CC(CNC(=O)c1cccnc1)NC(=O)c1cccnc1` (stereo not shown) [Nicaraven], the homologous recombination activity entry in assay [1] was “did not affect the homologous recombination ability”. In addition, the cell viability result is recorded as “cell viability further decreased” in the assay on HeLa cells (setting [4]); “decreased cell viability in a concentration-dependent manner” in the assay with HeLa cells (HeLa cells, drug added 24 hours after siRNA); “cell viability decreased” in the assay with KYSE30 cells; “cell viability further decreased” with KYSE270 cells. Further, the “γ-H2AX intranuclear foci (DNA damage remaining)” value in the assay on γ-H2AX [2] (HeLa cells with expression of RAD51 suppressed, compared with control) is listed as “DNA damage remained more remarkably”; in the assay with γ-H2AX [2] (HeLa cells, control and RAD51 siRNA), “caused DNA damage to remain”. Further, the “amount of γ-H2AX” value with γ-H2AX [3] is recorded as “reduced”.

For the molecule `O=C(c1cc(Cc2n[nH]c(=O)c3ccccc23)ccc1F)N1CCN(C(=O)C2CC2)CC1` [Olaparib], the cell viability entry with HeLa cells (setting [4]) and in the assay on KYSE270 cells was “decreased cell viability” in each case.
